Where “and” joins values, the source holds several entries; their conditions need not be identical. Equal entries are not always repeated. ± gives the expanded uncertainty stated by the source.

Data set [1] is described as follows: Molar enthalpy of transition or fusion. Conditions: Crystal; DSC.
The conditions of data set [2]: Crystal; DTA.

As to `CC(C(=O)O)c1cccc(C(=O)c2ccccc2)c1` (centres undefined) [ketoprofen], the “Molar enthalpy of transition or fusion” value in data set [1] turned out to be 7.29 ± 0.287 kcal/mol. Moreover, the Normal melting temperature in data set [2] was 94.20 ± 0.5 °C and 93.50 ± 0.5 °C.
With `NC(=O)c1cccnc1` [3-pyridinecarboxamide], the “Molar enthalpy of transition or fusion” value in data set [1] amounted to 5.88 ± 0.263 kcal/mol. The Normal melting temperature in data set [2] was 128.00 ± 0.5 °C and 127.50 ± 0.5 °C.

These data come from the NIST ThermoML archive (doi:10.1016/j.tca.2017.02.014).
